Source: paper PMC9502202, “Discovery of Novel Potential Aphid Repellents: Geranic Acid Esters Containing Substituted Aromatic Rings” (Molecules, 2022)

Test system: Acyrthosiphon pisum (A. pisum)
Experiment: Repellent activity test, glass two-way olfactometer
Assay type: in vivo
Conditions: 0.25 h, wingless A. pisum, 2.5 µL of 2000 mg/L test solution in n-hexane on filter paper, 15 min, RP = (C − T)/(C + T) × 100%, mean ± standard deviation, read-out: RP (%) repellency proportion
Procedure: The behavioral response of A. pisum to 5a-5x was investigated with a glass two-way olfactometer, and the aphid-repellent activity was carried out according to our previously published method. The aphids were reared in a growth chamber (at 23 ± 1 °C, with a […]:8D photoperiod and 70% relative humidity) at China Agricultural University. The compounds were weighed, dissolved in n-hexane, and prepared into a test solution with a concentration of 2000 mg/L using n-hexane as a blank control. About 20 wingless A. pisum were placed through the release port and each arm was pumped with 0.2 L/min of activated carbon and distilled water. One arm was chosen as the “treatment” (T) arm and another was the “control” (C) arm. For the “T” arm, 2.5 μL of test solutions were applied to filter paper strips (1 cm^2 diameter), and 2.5 μL of n-hexane was applied for the “C” arm. The number of aphids in each direction was recorded for 15 min at 2 cm from the center of the horizontal arm. The olfactometer was washed with ethanol, the filter paper was replaced, and the two arms were switched and the experiment was repeated four times for each treatment. The repellent activity was evaluated using RP as the formula RP = (C - T)/(C+T) × 100%, where T and C mean the number of aphids in the treatment and control arm, respectively. The RP values of the derivatives were statistically analyzed with SPSS 24.0 (SPSS Inc., Chicago, IL, USA) using a one-way analysis of variance (ANOVA), followed by a Duncan's test with a significance set at p < 0.05.

Compound CC(C)=CCC/C(C)=C/C(=O)Oc1ccc(Br)cc1 [5s, 4-bromophenyl (E)-3,7-dimethylocta-2,6-dienoate] has a pest or weed control at 2000 µg/mL of 43.4%.

COc1ccccc1OC(=O)/C=C(\C)CCC=C(C)C [5e, 2-methoxyphenyl (E)-3,7-dimethylocta-2,6-dienoate] was tested, and the pest or weed control at 2000 µg/mL was 37.4 ± 2.08%.

In the case of CC(C)=CCC/C(C)=C/C(=O)Oc1cccc(F)c1 [5l, 3-fluorophenyl (E)-3,7-dimethylocta-2,6-dienoate], the pest or weed control at 2000 µg/mL is reported as 34.9 ± 3.3%.

With CC(C)=CCC/C(C)=C/C(=O)Oc1cccc(C)c1 [5c, 3-tolyl (E)-3,7-dimethylocta-2,6-dienoate] the pest or weed control at 2000 µg/mL was 39.8 ± 1.95%.

CC(C)=CCC/C(C)=C/COC(=O)c1c(F)cccc1F [CAU15, reference compound] showed a pest or weed control at 2000 µg/mL of 18.3%.

Compound CC(C)=CCC/C(C)=C/COC(=O)c1ccc(Br)cc1 [CAU14, reference compound] has a pest or weed control at 2000 µg/mL of 33.5%.

CC(C)=CCC/C(C)=C/C(=O)Oc1cccc(Cl)c1 [5i, 3-chlorophenyl (E)-3,7-dimethylocta-2,6-dienoate] was tested, and the pest or weed control at 2000 µg/mL was 51.4 ± 1.2%.

Compound CC(C)=CCC/C(C)=C/C(=O)Oc1c(Br)cccc1Br [5x, 2,6-dibromophenyl (E)-3,7-dimethylocta-2,6-dienoate] has a pest or weed control at 2000 µg/mL of 43.9 ± 2.09%.

For CC(C)=CCC/C(C)=C/C(=O)Oc1ccccc1OC(F)(F)F [5t, 2-(trifluoromethoxy)phenyl (E)-3,7-dimethylocta-2,6-dienoate], the pest or weed control at 2000 µg/mL was 28.2 ± 1.55%.

Work on COc1cccc(OC(=O)/C=C(\C)CCC=C(C)C)c1 [5f, 3-methoxyphenyl (E)-3,7-dimethylocta-2,6-dienoate] yielded a pest or weed control at 2000 µg/mL of 55.6%.

With COc1ccc(OC(=O)/C=C(\C)CCC=C(C)C)cc1 [5g, 4-methoxyphenyl (E)-3,7-dimethylocta-2,6-dienoate] the pest or weed control at 2000 µg/mL was 43.6 ± 3.09%.

CC(C)=CCC/C(C)=C/C(=O)Oc1cccc(Br)c1 [5r, 3-bromophenyl (E)-3,7-dimethylocta-2,6-dienoate] was tested, and the pest or weed control at 2000 µg/mL was 51.2 ± 1.94%.

CC(C)=CCC/C(C)=C/C(=O)Oc1c(F)cccc1F [5w, 2,6-difluorophenyl (E)-3,7-dimethylocta-2,6-dienoate] was tested, and the pest or weed control at 2000 µg/mL was 36.7%.

In the case of CC(C)=CCC/C(C)=C/C(=O)Oc1ccc(C)cc1 [5d, 4-tolyl (E)-3,7-dimethylocta-2,6-dienoate], the pest or weed control at 2000 µg/mL is reported as 38.7 ± 2.75%.

CC(C)=CCC/C(C)=C/C(=O)Oc1ccccc1F [5k, 2-fluorophenyl (E)-3,7-dimethylocta-2,6-dienoate] gave a pest or weed control at 2000 µg/mL of 28.8 ± 1.31%.

With CC(C)=CCC/C(C)=C/C(=O)Oc1ccc(Cl)cc1 [5j, 4-chlorophenyl (E)-3,7-dimethylocta-2,6-dienoate] the pest or weed control at 2000 µg/mL was 38.7 ± 2.75%.

With CC(C)=CCC/C(C)=C/C(=O)Oc1ccc(OC(F)(F)F)cc1 [5v, 4-(trifluoromethoxy)phenyl (E)-3,7-dimethylocta-2,6-dienoate] the pest or weed control at 2000 µg/mL was 24.9 ± 2.52%.

CC(C)=CCC/C(C)=C/C(=O)Oc1ccccc1 [5a] was tested, and the pest or weed control at 2000 µg/mL was 38.1 ± 2.38%.

CC(C)=CCC/C(C)=C/C(=O)Oc1ccccc1C [5b, 2-tolyl (E)-3,7-dimethylocta-2,6-dienoate] gave a pest or weed control at 2000 µg/mL of 35.2 ± 2.65%.

For CC(C)=CCC/C(C)=C/C(=O)Oc1cccc(OC(F)(F)F)c1 [5u, 3-(trifluoromethoxy)phenyl (E)-3,7-dimethylocta-2,6-dienoate], the pest or weed control at 2000 µg/mL was 38 ± 2.54%.

Work on CC(C)=CCC/C(C)=C/C(=O)Oc1cccc([N+](=O)[O-])c1 [5o, 3-nitrophenyl (E)-3,7-dimethylocta-2,6-dienoate] yielded a pest or weed control at 2000 µg/mL of 41.5 ± 1.49%.

CC(C)=CCC/C(C)=C/C(=O)Oc1ccccc1[N+](=O)[O-] [5n, 2-nitrophenyl (E)-3,7-dimethylocta-2,6-dienoate] was tested, and the pest or weed control at 2000 µg/mL was 23.4 ± 2.35%.

For CC(C)=CCC/C(C)=C/C(=O)Oc1ccccc1Cl [5h, 2-chlorophenyl (E)-3,7-dimethylocta-2,6-dienoate], the pest or weed control at 2000 µg/mL was 31.8 ± 1.31%.

With CC(C)=CCC/C(C)=C/C(=O)Oc1ccc([N+](=O)[O-])cc1 [5p, 4-nitrophenyl (E)-3,7-dimethylocta-2,6-dienoate] the pest or weed control at 2000 µg/mL was 39.8 ± 1.95%.

For CC(C)=CCC/C(C)=C/C(=O)Oc1ccccc1Br [5q, 2-bromophenyl (E)-3,7-dimethylocta-2,6-dienoate], the pest or weed control at 2000 µg/mL was 42.7 ± 1.36%.

CC(C)=CCC/C(C)=C/C(=O)Oc1ccc(F)cc1 [5m, 4-fluorophenyl (E)-3,7-dimethylocta-2,6-dienoate] was tested, and the pest or weed control at 2000 µg/mL was 27.9 ± 2.85%.
